Patent US12383524B2, “Therapeutic compositions of undecylenic acid and arginine” (Wintermute Biomedical, Inc., priority 2018, dated 2025)

How the values were obtained:
[1] = tested on: methicillin-resistant Staphylococcus aureus (MRSA); assay: In vitro bactericidal assay against MRSA isolates (viable CFU/mL after treatment); details: average of three MRSA isolates, 24 hours, varying CA concentration
Protocol: Note that efficacy is reported in terms of the viable bacterial concentration (in CFU/mL) remaining after 24 hours of treatment with the drug product (in compliance with CLSI guidelines).
In this example, bacteria (MRSA isolates) are put onto fresh plates and allowed to grow for 30 hours. A suspension inoculum is made from the plates (e.g., a 1 McFarland solution in sterile water), from which the turbidity may be optically read. A standard inoculum may then be cultured in media and 100 μL of that solution combined with 100 μL of drug product and grown at various dilutions for 16-20 hrs. Duplicates may then be examined (e.g., following pelleting at 7,000 RPM for 15 min, resuspended in PBS and serial dilutions plated and grown for 24 hrs.). Duplicate plates at multiple dilutions may then be imaged and colonies counted.
For example, in each of these examples in FIG. 20, the fatty acid to amino acid in the compositions was at a ratio of about 1:0.76 (fatty acid:amino acid) by weight when diluted and used to treat MRSA. GS-1, GS-2 and GS-3 all had fatty acid:amino acid aqueous mixtures with approximately 32% w/w of total active pharmaceutical ingredients (APIs), which were diluted at 1:128 in water, resulting in a concentration of about 0.25% w/w total APIs. […]

[2] = tested on: bacteria; assay: Variation of the amino acid combined with UCA, bactericidal effect; type: cell-based
Text: Thus in some variations, the amino acid may be limited to a charged (and particularly the positively charged) amino acids, such as amino acid having an electrically charged basic side chain.

SMILES | effect of CA on efficacy of the UCA and LARG composition [1] | bactericidal effect when used as the amino acid with the fatty acid [2]
CCCCCCCCCCCCCCCCO [CA, cetyl alcohol] | clear inhibitory effect | –
N=C(N)NCCC[C@@H](N)C(=O)O [D-Arginine] | – | ineffective
